The source of these data is patent publication US10513526B2, “Solid state forms of spiro-oxindole compounds” (Xenon Pharmaceuticals Inc., priority 2016, dated 2019).

This data set can be described thus: Melting of Form A0 in dry N2 (heated to 140° C., cooled to room temperature). The format is physicochemical. To be noted: heated to 140° C. in dry N2 atmosphere, then cooled to room temperature and crushed. As to the method: A. The amorphous form of funapide was generated by melting Form A0 of funapide in a dry N2 atmosphere optionally using the VT stage on the XRPD unit. The sample was heated to 140° C. and then cooled to room temperature and crushed. […] The sample was confirmed to be the amorphous form of funapide by XRPD.

On to `O=C1N(Cc2ccc(C(F)(F)F)o2)c2ccccc2[C@]12COc1cc3c(cc12)OCO3` [Form A0 of funapide], for which the decomposition on melting entry is “No decomposition was observed”.
